Assay results published in DBAASP.
≈ marks a conversion by molar mass, not a printed value. Blank lines part the entries; values can stand above or below the compound they belong to.

Tests used:
Assay in all cases: ≥ marks a high value that may be exact or a test limit, other limits are often not marked, values filed in µg/mL are converted to µM
[1] = system: Escherichia coli ATCC 25922
[2] = system: Bacillus subtilis ATCC 6633
[3] = system: Candida albicans ATCC 2002
Shigella dysenteriae = system: Shigella dysenteriae
[4] = system: Staphylococcus aureus ATCC 2592
[5] = system: Staphylococcus aureus ATCC 43300
Escherichia coli ML-35p = system: Escherichia coli ML-35p
[6] = system: Staphylococcus aureus ATCC 25923
[7] = system: Klebsiella pneumoniae ATCC 13883
[8] = system: Enterococcus faecalis ATCC 29212
[9] = system: Streptococcus pyogenes ATCC 19615
[10] = system: Staphylococcus aureus ATCC BAA-44
[11] = system: Staphylococcus aureus ST1065
[12] = system: Candida parapsilosis ATCC 22019
Saccharomyces cerevisiae = system: Saccharomyces cerevisiae
[13] = system: Pseudomonas aeruginosa ATCC 27853
[14] = system: Acinetobacter baumannii ATCC 19606
Escherichia coli = system: Escherichia coli
Proteus mirabilis = system: Proteus mirabilis
Bacillus subtilis = system: Bacillus subtilis
Serratia marcescens = system: Serratia marcescens
Pseudomonas aeruginosa = system: Pseudomonas aeruginosa
Salmonella typhimurium = system: Salmonella typhimurium
Micrococcus luteus = system: Micrococcus luteus
[15] = system: Staphylococcus epidermidis
Candida albicans = system: Candida albicans
Bacillus subtilis DELTA = system: Bacillus subtilis DELTA
[16] = system: Escherichia coli DH5alpha
[17] = system: Zymomonas mobilis ATCC 10988
[18] = system: Pseudomonas aeruginosa PAO1
Candida parapsilosis = system: Candida parapsilosis
[19] = system: Streptococcus sanguinis ATCC 10556
[20] = system: Streptococcus mutans UA159
[21] = system: Streptococcus sobrinus ATCC 6715
Escherichia coli C600 = system: Escherichia coli C600
[22] = system: Staphylococcus aureus 209P

Structure (SMILES): CC(C)C[C@H](NC(=O)CNC(=O)[C@@H](NC(=O)[C@H](CCCCN)NC(=O)CNC(=O)[C@H](C)NC(=O)[C@H](Cc1c[nH]c2ccccc12)NC(=O)[C@H](CCCCN)NC(=O)[C@H](CC(C)C)NC(=O)[C@H](CC(C)C)NC(=O)[C@H](Cc1ccccc1)NC(=O)[C@H](CCCCN)NC(=O)[C@H](CC(C)C)NC(=O)[C@@H](NC(=O)[C@H](Cc1ccccc1)NC(=O)[C@@H](N)Cc1ccccc1)C(C)C)C(C)C)C(=O)N[C@@H](CCC(=O)O)C(=O)N[C@@H](Cc1cnc[nH]1)C(=O)N[C@@H](CC(C)C)C(=O)N[C@@H](C)C(=O)N[C@H]1CSSC[C@@H](C(=O)O)NC(=O)[C@H](Cc2c[nH]c3ccccc23)NC(=O)[C@H](CC(N)=O)NC(=O)[C@H](CCCCN)NC(=O)[C@H](Cc2ccccc2)NC(=O)[C@H](CCCCN)NC1=O [FFVLKFLLKWAGKVGLEHLACKFKNWC]
MIC [1]: 1.94 µM (≈ 6.25 µg/mL)
MIC [2]: 0.465 µM (≈ 1.5 µg/mL)
MIC [3]: 3.87 µM (≈ 12.5 µg/mL)
MIC (Shigella dysenteriae): 0.465 µM (≈ 1.5 µg/mL)
MIC [4]: 3.87 µM (≈ 12.5 µg/mL)

Structure (SMILES): CC[C@H](C)[C@H](NC(=O)[C@H](Cc1cnc[nH]1)NC(=O)[C@@H]1CCCN1C(=O)[C@@H](NC(=O)[C@H](CCSC)NC(=O)[C@H](CO)NC(=O)[C@H](CC(C)C)NC(=O)[C@@H](N)Cc1ccccc1)[C@@H](C)CC)C(=O)N[C@H](C(=O)N[C@@H](CO)C(=O)NCC(=O)N[C@H](C(=O)N[C@@H](C)C(=O)N[C@@H](C)C(=O)N[C@@H](CC(C)C)C(=O)N[C@@H](C)C(=O)N[C@@H](CCCCN)C(=O)N[C@@H](Cc1cnc[nH]1)C(=O)N[C@@H](CC(C)C)C(N)=O)C(C)C)C(C)C [FLSMIPHIVSGVAALAKHL]
MIC [1]: 25 µM (≈ 50.1 µg/mL)
MIC [5]: 6.25 µM (≈ 12.5 µg/mL)
MIC (Escherichia coli ML-35p): 25 µM (≈ 50.1 µg/mL)
MIC [6]: 6.25 µM (≈ 12.5 µg/mL)
MIC [7]: 25 µM (≈ 50.1 µg/mL)
MIC [8]: 50 µM (≈ 100 µg/mL)
MIC [9]: 3.12 µM (≈ 6.25 µg/mL)
MIC [10]: 6.25 µM (≈ 12.5 µg/mL)
MIC [11]: 6.25 µM (≈ 12.5 µg/mL)
MIC [12]: ≥ 50 µM
MIC (Saccharomyces cerevisiae): 12.5 µM (≈ 25 µg/mL)
MIC [13]: 100 µM (≈ 200 µg/mL)
MIC [14]: 6.25 µM (≈ 12.5 µg/mL)

Structure (SMILES): CC[C@H](C)[C@H](NC(=O)CN)C(=O)N[C@@H](CC(C)C)C(=O)N[C@@H](CC(=O)O)C(=O)N[C@H](C(=O)N[C@@H](CC(C)C)C(=O)N[C@@H](CCCCN)C(=O)N[C@@H](CCC(N)=O)C(=O)N[C@@H](Cc1ccccc1)C(=O)N[C@@H](C)C(=O)N[C@@H](CCCCN)C(=O)NCC(=O)N[C@H](C(=O)NCC(=O)N[C@@H](CCCCN)C(=O)N[C@@H](CC(=O)O)C(=O)N[C@@H](CC(C)C)C(=O)N[C@H](C(=O)N[C@@H](CCCCN)C(=O)NCC(=O)N[C@@H](C)C(=O)N[C@@H](C)C(=O)N[C@@H](CCC(N)=O)C(=O)NCC(=O)N[C@H](C(=O)O)C(C)C)C(C)C)C(C)C)[C@@H](C)O [GILDTLKQFAKGVGKDLVKGAAQGV]
MIC (Escherichia coli): 19.9 µM (≈ 50 µg/mL)
MIC (Proteus mirabilis): 19.9 µM (≈ 50 µg/mL)
MIC (Bacillus subtilis): ≥ 39.8 µM
MIC (Serratia marcescens): ≥ 39.8 µM
MIC (Pseudomonas aeruginosa): 39.8 µM (≈ 100 µg/mL)
MIC (Shigella dysenteriae): 19.9 µM (≈ 50 µg/mL)
MIC (Salmonella typhimurium): ≥ 39.8 µM
MIC (Micrococcus luteus): 1.99 µM (≈ 5 µg/mL)
MIC [15]: 29.8 µM (≈ 75 µg/mL)
MIC (Saccharomyces cerevisiae): 19.9 µM (≈ 50 µg/mL)
MIC (Candida albicans): > 39.8 µM

Structure (SMILES): CC[C@H](C)[C@H](NC(=O)[C@H](CCCCN)NC(=O)[C@H](CCCCN)NC(=O)[C@H](CC(C)C)NC(=O)[C@H](CC(C)C)NC(=O)CN)C(=O)N[C@@H](CCCCN)C(=O)N[C@@H](CCCN=C(N)N)C(=O)N[C@@H](CC(C)C)C(=O)N[C@@H](CC(C)C)C(N)=O [GLLKKIKRLL]
MIC (Bacillus subtilis DELTA): ≥ 169 µM
MIC [16]: ≥ 169 µM
MIC [17]: ≥ 33.9 µM
MIC [18]: 5.92 µM (≈ 6.99 µg/mL)
MIC (Candida parapsilosis): 25.4 µM (≈ 30 µg/mL)

Structure (SMILES): CC(C)[C@H](NC(=O)[C@H](CCCN=C(N)N)NC(=O)[C@H](CCCCN)NC(=O)CNC(=O)[C@@H](NC(=O)[C@H](CCCN=C(N)N)NC(=O)[C@H](Cc1c[nH]c2ccccc12)NC(=O)[C@H](Cc1c[nH]c2ccccc12)NC(=O)[C@H](CCCCN)NC(=O)[C@H](CCCCN)NC(=O)[C@H](Cc1ccccc1)NC(=O)[C@H](Cc1ccccc1)NC(=O)[C@H](CCCN=C(N)N)NC(=O)CNC(=O)[C@H](Cc1c[nH]c2ccccc12)NC(=O)CN)C(C)C)C(=O)NCC(=O)N[C@@H](CCCCN)C(=O)O [GWGRFFKKWWRVGKRVGK]
MIC [19]: 7.02 µM (≈ 16 µg/mL)
MIC [20]: 7.02 µM (≈ 16 µg/mL)
MIC [21]: 7.02 µM (≈ 16 µg/mL)

The remaining lines, values ahead:

MIC [19]: 16.6 µM (≈ 32 µg/mL)
MIC [20]: 8.31 µM (≈ 16 µg/mL)
MIC [21]: 8.31 µM (≈ 16 µg/mL)
Structure (SMILES): CC(C)[C@H](NC(=O)[C@H](CCCCN)NC(=O)[C@H](CCCCN)NC(=O)[C@H](Cc1c[nH]c2ccccc12)NC(=O)[C@H](CCCCN)NC(=O)[C@H](CCCCN)NC(=O)[C@H](Cc1ccccc1)NC(=O)[C@H](Cc1ccccc1)NC(=O)[C@H](CCCCN)NC(=O)[C@H](CCCCN)NC(=O)[C@H](Cc1c[nH]c2ccccc12)NC(=O)CN)C(=O)N[C@@H](Cc1c[nH]c2ccccc12)C(=O)N[C@@H](CCCCN)C(=O)O [GWKKFFKKWKKVWK]

MIC (Escherichia coli C600): 1.56 µM (≈ 3.62 µg/mL)
MIC [22]: ≥ 50 µM
MIC [18]: > 50 µM
Structure (SMILES): CC[C@H](C)[C@@H]1NC(=O)CNC(=O)[C@H](CCCN=C(N)N)NC(=O)[C@H](Cc2ccc(O)cc2)NC(=O)[C@@H]2CSSC[C@H](NC1=O)C(=O)N[C@@H](Cc1ccc(O)cc1)C(=O)N[C@@H](CCCN=C(N)N)C(=O)N[C@@H](CCCN=C(N)N)C(=O)N[C@H](C(=O)N[C@@H](CCCN=C(N)N)C(=O)O)CSSC[C@H](NC(=O)[C@H](Cc1c[nH]c3ccccc13)NC(=O)[C@@H](N)CCCCN)C(=O)N[C@@H](Cc1ccccc1)C(=O)N[C@@H](CCCN=C(N)N)C(=O)N[C@@H](CCCN=C(N)N)C(=O)N2 [KWCFRRCYRGICYRRCR]

MIC (Bacillus subtilis DELTA): 31.5 µM (≈ 40 µg/mL)
MIC [16]: ≥ 315 µM
MIC [17]: 7.86 µM (≈ 9.99 µg/mL)
MIC (Candida parapsilosis): 23.6 µM (≈ 30 µg/mL)
Structure (SMILES): CC[C@H](C)[C@H](NC(=O)[C@H](Cc1ccccc1)NC(=O)[C@H](CCCCN)NC(=O)[C@H](CC(C)C)NC(=O)[C@H](CC(C)C)NC(=O)[C@@H](N)CCCN=C(N)N)C(=O)N[C@@H](CCCCN)C(=O)N[C@@H](CCCCN)C(=O)N[C@@H](CC(C)C)C(=O)N[C@@H](CC(C)C)C(N)=O [RLLKFIKKLL]
